Literature values as cited in patent publication US10799449B2, “Medicinal delivery system and related methods” (JSRNTI, LLC, priority 2006, dated 2020).

Legend:
[1] = in water

Q: With Isomalt as the compound, how does the Solubility [1] read?
A: Its Solubility is 38 grams/100 grams water.

Q: Which “Available nicotine in an un-ionized state” value (buffered saliva pH of 9.0) does the source give for `CN1CCCC1c1cccnc1` (stereo not drawn) [Nicotine] here?
A: The value was “approximately 91%”.

Q: And the pKa (weak base)?
A: The pKa was “approximately 8.0”.

Q: And the “Available nicotine in the un-ionized form” value (without buffer, normal saliva pH of 6.5)?
A: Its value is 3%.

Q: For `OC[C@@H](O)[C@@H](O[C@@H]1O[C@H](CO)[C@H](O)[C@H](O)[C@H]1O)[C@H](O)[C@@H](O)CO` [Lactitol], which Solubility [1] is on record?
A: Its Solubility is 55 grams/100 grams water.

Q: For `OC[C@@H](O)[C@@H](O[C@H]1O[C@H](CO)[C@@H](O)[C@H](O)[C@H]1O)[C@H](O)[C@@H](O)CO` [Maltitol], which Solubility [1] is on record?
A: The Solubility was 71 grams/100 grams water.

Q: Which Solubility [1] does the source give for `OC[C@@H](O)[C@@H](O)[C@H](O)[C@@H](O)CO` [Sorbitol] here?
A: Its Solubility is 75 grams/100 grams water.

Q: For `OC[C@@H](O)[C@@H](O)[C@H](O)[C@H](O)CO` [Mannitol], which Solubility [1] is on record?
A: The Solubility was 23 grams/100 grams water.

Q: For `OC[C@@H](O)[C@H](O)[C@@H](O)CO` [Xylitol], which Solubility [1] is on record?
A: Its Solubility is 70 grams/100 grams water.
